Experimental data taken from patent US20220177484A1, “MACROCYCLES WITH ANTIOXIDANT AND NEUROPROTECTIVE ACTIVITIES” (INSTITUTO BIOMAR, S.A, priority 2019, published 2022).

Tests used:
Type in all cases: cell-based
[1] = test system: cortical primary neurons (from C57BL6/J mice); assay: H2O2 production in neurons after excitotoxic NMDA stimulus (Amplex Red); conditions: 100 μM NMDA 10 min, then compound 0.1, 1, 5 μM (FIG. 5)
Description: For NMDA receptors activation, neurons at 8 days in vitro were incubated with 100 μM NMDA for 10 minutes. Neurons were then washed and further incubated for 4 hours in culture medium with DMSO only (DMSO empty bar), DMSO and NMDA (DMSO filled bar) and with increasing quantities of GKK1032C, GKK1032, Pyrrocidine A, Pyrrocidine B, CL0661, CL0667 and CL0670. Concentrations of 0.1 μM, 1 μM, 5 μM. *: p-value <0.05 vs. DMSO+NMDA (student's test).
(§1) Experiments were performed in […] cortical primary neurons, obtained as was previously described (Herrero-Mendez A. et al., Nat. Cell. Biol. 11:747-752, 2009). After 7 or 8 days in B27-MAO culture, neurons (from C57BL6/J mice) were incubated in the presence of N-methyl-D-aspartate (NMDA, a H2O2 production promoter; 100 μM) for 10 minutes, followed by a PBS washing step and submitted to a 24-hour B27 incubation step in the absence (DMSO) or presence of increasing amounts of GKK1032C, GKK1032, Pyrrocidine B, Pyrrocidine A, CL0661, CL0665, CL0667 and CL0670 (0.1 μM, 1 μM and 5 μM). B27-MAO stands for Neurobasal medium, supplemented with B27 supplement in the absence of antioxidants (minus antioxidants, MAO).
The release of H2O2 was measured using the fluorescent method Amplex© Red hydrogen peroxide/peroxidase assay kit (Invitrogen, catalog number A22188) using a multiwell fluorescence reader (Varioskan, Thermo Scientific).
(§2) The data are presented as the mean values±standard deviation of the mean from n=3.

[2] = test system: rat cortical primary neurons; assay: H2O2 formation in cortical primary neurons treated with L-BSO and rotenone (Amplex Red); conditions: compound 1 μg/ml together with L-BSO and rotenone for 6 h, washed, recorded 2 h (FIG. 2)
Description: The data are presented as the mean values±[…] of the mean (SEM) from n=6 (i.e., 6 independent wells measured independently).
After this period, cells were again washed and determined the rate of H2O2 production during the next 2 h.

[3] = test system: cortical primary neurons (from C57BL6/J mice); assay: Caspase-3 activity (neuronal apoptosis) after excitotoxic NMDA stimulus; conditions: 100 μM NMDA 10 min, then 24 h with compound 0.1, 1, 5 μM (FIG. 6)
Description: For NMDA receptors activation, neurons at 8 days in vitro were incubated with 100 μM NMDA for 10 minutes. Neurons were then washed and further incubated for 24 hours in culture medium with DMSO only (DMSO empty bar), DMSO and NMDA (DMSO filled bar) and with increasing quantities of GKK1032C, GKK1032, Pyrrocidine B, CL0661, CL0665, CL0667 and CL0670. Concentrations of 0.1 μM, 1 μM, 5 μM. *: pvalue <0.05 vs. DMSO+NMDA (student's test).
as §1
Neuronal apoptosis was determined by measuring caspase-3 activity (Veas-Perez de Tudela et al. Sci Rep 5:18180; doi:10.1038/srep18180 (2015).
as §2

Row | Structure (SMILES) | H2O2 production in neuron cells after NMDA [1] | rate of H2O2 formation [2] | neuronal apoptosis (caspase-3 activity) after NMDA [3]
1 | C=C[C@@]1(C)C=C(C)C2C3[C@H](Oc4ccc(cc4)CC4C(=O)NC(=O)[C@H]4C(=O)[C@H]31)C1[C@@H](C)C[C@@H](C)C[C@@]21C (stereo partly drawn) [GKK1032, reference compound] | successful in preventing H2O2 from being produced | significantly impaired | effective in protecting neuron cells against apoptosis
2 | C=CC1(C)C=C(C)C2C3C(Oc4ccc(cc4)CC4C(=O)N(CC#N)C(=O)C4C(=O)C31)C1C(C)CC(C)CC21C (stereo not drawn) [CL0667] | successful in preventing H2O2 from being produced | – | effective in protecting neuron cells against apoptosis
3 | C=CC1(C)C=C(C)C2C3C(Oc4ccc(cc4)CC45OC4(C(=O)NC5=O)C(=O)C31)C1C(C)CC(C)CC21C (stereo not drawn) [CL0661] | successful in preventing H2O2 from being produced | – | effective in protecting neuron cells against apoptosis
4 | CC1=CC2(C)C(C)O/C3=C4\C(=O)NC(=O)C4Cc4ccc(cc4)OC4C(C32)C1C1(C)CC(C)CC(C)C41 (stereo not drawn) [CL0665] | – | – | effective in protecting neuron cells against apoptosis
5 | C=C[C@@H]1C=C(C)[C@H]2[C@@H]3[C@H](Oc4ccc(cc4)C[C@@]4(O)C[C@H](C(=O)N4)C(=O)[C@@H]13)[C@@H]1[C@@H](C)C[C@@H](C)C[C@]12C [Pyrrocidine B, reference compound] | successful in preventing H2O2 from being produced | – | effective in protecting neuron cells against apoptosis
6 | C=C[C@@H]1C=C(C)[C@H]2[C@@H]3[C@H](Oc4ccc(cc4)C[C@@]4(O)C=C(C(=O)N4)C(=O)[C@@H]13)[C@@H]1[C@@H](C)C[C@@H](C)C[C@]12C [Pyrrocidine A, reference compound] | successful in preventing H2O2 from being produced | significantly impaired | –
